{"source": "ChEMBL document CHEMBL5634186", "about": "“Structure-Activity Relationship Study of Biselyngbyolide B Reveals Mitochondrial Fission-Induced Cytotoxicity in Cancer” (ACS Med Chem Lett, 2024)", "key": {"HCT-116": {"tested_on": "HCT-116", "experiment": "Anticancer activity against human HCT-116 cells assessed as inhibition of cell viability incubated for 16 hrs by MTT assay", "assay_type": "functional, cell-based", "conditions": "HCT-116, 16 h"}, "[1]": {"experiment": "Cytotoxicity against HEK293 cells assessed as reduction in cell viability incubated for 16 hrs by MTT assay", "assay_type": "toxicity, cell-based", "conditions": "human"}}, "data": [{"compound": "CCCC/C(C)=C\\[C@H]1C/C=C/C=C/C[C@H](C)/C=C(\\C)[C@@H](OC)C/C=C/[C@@H](O)CC(=O)O1", "values": [{"measurement": "IC50", "setting": "HCT-116", "value": 8.1, "unit": "µM"}, {"measurement": "IC50 at 16 h", "setting": "[1]", "value": 11.3, "unit": "µM"}]}, {"compound": "C/C=C/C/C(C)=C\\[C@H]1C/C=C/C=C/C[C@H](C)/C=C(\\C)[C@@H](OC)C/C=C/CCC(=O)O1", "values": [{"measurement": "IC50", "setting": "HCT-116", "value": 15.6, "unit": "µM"}, {"measurement": "IC50 at 16 h", "setting": "[1]", "value": 15.2, "unit": "µM"}]}, {"compound": "C/C=C/C/C(C)=C\\[C@H]1C/C=C/C=C/C[C@H](C)/C=C/[C@@H](OC)C/C=C/[C@@H](O)CC(=O)O1", "values": [{"measurement": "IC50", "setting": "HCT-116", "value": 7.1, "unit": "µM"}, {"measurement": "IC50 at 16 h", "setting": "[1]", "value": 11.8, "unit": "µM"}]}]}
